Measured values published in publication PMC9106797, “Formation and Identification of a 5-(Hydroxymethyl)-2-Furfural-Zingerone Condensate and Its Cytotoxicity in Caco-2 Cells” (Frontiers in Nutrition, 2022).
“And” between values parts separate entries of the source, which are not always exact repeats. Identical values can stand only once.

Columns and labels:
[1] = Cell viability assay (CCK-8); format: cell-based; settings: human, Caco-2 cells, read-out: IC50, cytotoxicity against Caco-2 cells; for IC50 at 24 h: 24 h incubation; for IC50 at 48 h: 48 h incubation
Method: The Caco-2 cell line (ATCC HTB-37) was obtained from the American Type Culture Collection (Rockville, MD, USA). Cells were cultivated by the method of Kosińska-Cagnazzo et al. ([30]) with slight modifications. Specifically, α-MEM medium supplemented with 10% FBS, 1% penicillin/streptomycin, and 1% NEAA was used to cultivate Caco-2 cells at 37°C and 5% (v/v) CO2 atmosphere. When the cells reached 80–90% confluence, they were detached with 0.25% trypsin-EDTA and further sub-cultured on fresh growth medium. Cells between passages 30 and 35 were used.
Cell viability was measured by the CCK-8 method as described by Zhao et al. ([31]) with modifications. Briefly, Caco-2 cells at a density of 2.5 × 10^4 cells/well were seeded into 96-well plates and maintained at 37°C under a humidified atmosphere containing 5% CO2 and 95% air for 24 h. Subsequently, the origin culture medium was removed, and different concentrations (2, 4, 8, 16, 32, and 64 mM) of HMZ and HMF were added. Three duplicate wells were set for each concentration. The cells were further incubated for 24 and 48 h, respectively. Then, 10 μL of CCK-8 solution was added into each well for 2 h, and the absorbance was read at 450 nm on a microplate reader (Multiskan, Thermo, USA).

FVB/N mice = test system: FVB/N mice; parameters: method as in PMID 22349055; settings: FVB/N mice, 31.25, 62.5, 125 and 250 mg SMF/kg; cited from earlier work
[2] = Effect of reaction temperature on HMZ amount (one-factor-at-a-time, HPLC); format: physicochemical; settings: temperature over 50°C, 3 h
Method: A one-factor-at-a-time design was applied to estimate the effects of different reaction parameters on HMF elimination by ZGR, as well as the adduct formation between HMF and ZGR. ZGR/HMF in the molar ratio of 2: 1 was mixed in a three-necked flask and incubated at 40°C for different durations (0.5, 1.0, 1.5, 2.0, 2.5, and 3.0 h) to investigate the effect of reaction time. ZGR/HMF in the molar ratio of 2: 1 was mixed and reacted for 3 h at different temperature levels (20, 30, 40, 50, 60, and 70°C) to study the effect of temperature. In addition, temperature and reaction duration were kept constant at 40°C and 3 h, respectively, to evaluate the effect of different ZGR/HMF molar ratios (4: 1, 3: 1, 2: 1, 1: 1, and 1: 2). At the end of each reaction, 30 μL of the aqueous reaction mixture was diluted with methanol to a final volume of 500 μL for HPLC analysis. HMF and HMZ were quantified by comparing their peak areas to each standard curve.

[3] = In vitro simulated digestion (mouth, gastric, intestinal stages), HPLC; format: in vitro ADME; settings: for decrease of HMZ content after digestion: 37°C
Method: The adduct was subjected to in vitro simulated digestion at three stages, namely, the mouth, gastric, and intestinal stages, to evaluate its stability ([28], [29]). Briefly, HMZ (2 mg) was dissolved in DMSO (200 μL), diluted with ultra-pure water to the final concentration of 0.5 mg/mL, and then mixed with 6 mL of SSF in a flask. The mixture was magnetically stirred at 100 r/min for 2 min at 37°C to mimic saliva digestion. Afterward, 10 mL of SGF was added to simulate the gastric phase, and the mixture was reacted for 2 h under the same condition. Subsequently, 20 mL of SIF was added for the simulation of intestinal digestion for another 2 h. Samples (100 μL) were withdrawn at the end of each stage of the digestion process for HPLC analysis. Each digestion process was repeated in triplicate, and the content of HMZ was calculated by referring to the calibration curve.

Caco-2 cells = test: Absorption of HMZ in Caco-2 cells (HPLC of treated solution); format: in vitro ADME; settings: 2 h, 37°C
Method: HMZ absorption was evaluated according to de Oliveira et al. with slight modifications ([32]). Briefly, Caco-2 cells were inoculated in 6-well plates at the density of 2 × 10^4 cells/well (2 mL) and cultured until 90% confluence at 37°C with 5% CO2. Then, the cells were washed thrice with 1 mL of HBSS. Another 1 mL of HBSS was added for further culture for 30 min. Ten microliters of HMZ solution (pH 7.4) at concentrations of 1–100 μM were added separately and cultivated for 2 h to allow the adduct solution to be absorbed by cells under certain condition (37°C, 5% CO2/95% air). The treated solution was transferred into Eppendorf tubes for HPLC analysis. The control of each sample under different concentrations was the respective sample without incubation, and each of the absorption rate of the adduct by Caco-2 cells was calculated as follows:
(1) Absorption rate (%) =S1−S2/S1× 100%
where S1 is the peak area of the control, and S2 is the peak area of the sample incubated for 2 h.

Row | SMILES | IC50 at 24 h [1] | IC50 at 48 h [1] | liver toxicity (FVB/N mice) | thermal stability in the reaction mixture [2] | decrease of HMZ content after digestion ([3]; after SGF (simulated gastric fluid), further 2 h) | decrease of HMZ content after digestion ([3]; after SIF (simulated intestinal fluid), further 2 h) | decrease of HMZ content after digestion ([3]; after SSF (simulated salivary fluid), 2 min) | stability in simulated in vitro digestion ([3]; three digestion conditions) | absorption (Caco-2 cells; HMZ 1 μM) | absorption rate (Caco-2 cells; HMZ 1 μM) | absorption (Caco-2 cells; HMZ 4 μM) | absorption rate (Caco-2 cells; HMZ 4 μM) | absorption (Caco-2 cells; HMZ 20 μM) | absorption rate (Caco-2 cells; HMZ 20 μM) | absorption (Caco-2 cells; HMZ 100 μM) | absorption rate (Caco-2 cells; HMZ 100 μM)
1 | O=Cc1ccc(CO)o1 [HMF, 5-(Hydroxymethyl)-2-furfural] | 35.4 ± 4.03 mM | 19.2 ± 2.1 mM |  |  |  |  |  |  |  |  |  |  |  |  |  | 
2 | O=Cc1ccc(COS(=O)(=O)O)o1 [SMF, 5-sulfo-oxymethylfurfural] |  |  | hepatic lesions |  |  |  |  |  |  |  |  |  |  |  |  | 
3 | COc1cc(CCC(=O)/C=C/c2ccc(CO)o2)ccc1O [HMZ] | 41.5 ± 5.33 mM | 25.4 ± 3.12 mM |  | appeared to degrade | 14.19% | 24.06% | 7.14% | moderate level | 0.61 ± 0.75 ×10^-5 μmol | 60.74% and 60.74 ± 7.51% | 2.85 ± 0.03 ×10^-5 μmol | 71.38% and 71.38 ± 0.80% | 11.22 ± 0.03 ×10^-5 μmol | 56.11% and 56.11 ± 1.85% | 34.71 ± 0.17 ×10^-5 μmol | 34.71% and 34.71 ± 1.68%
